IC50 data for 32 molecules are collected here from US12570675B2, “Boronic acid compounds” (LG CHEM, LTD., priority 2020, dated 2026).

The term IC50 denotes the concentration that gives 50% inhibition.

The target in the test is Proteasome chymotrypsin-like activity (S26 protein from RPMI8226 cells) (Homo sapiens, UniProt P28074). Type of test: biochemical. As to conditions: S26 protein from RPMI8226 cell extract 2 ug/well, substrate 20 uM, 37° C., 90 minutes; read-out: Proteasome chymotrypsin-like activity inhibition IC50. In a few lines: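 RPMI8226 myeloma cell lysate (S26 fraction, 20 mM Tris-HCl pH 8.0; 2 ug/well) incubated with compound serially diluted from 10 uM (0.5% DMSO) and 20 uM Suc-LLVY-AMC (chymotrypsin-like) or Z-LLE-AMC (caspase-like) for 90 min at 37 °C. Fluorescence read; IC50 from % of uninhibited signal.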
Chain of Proteasome chymotrypsin-like activity (S26 protein from RPMI8226 cells) (P28074 60-263 limits assumed): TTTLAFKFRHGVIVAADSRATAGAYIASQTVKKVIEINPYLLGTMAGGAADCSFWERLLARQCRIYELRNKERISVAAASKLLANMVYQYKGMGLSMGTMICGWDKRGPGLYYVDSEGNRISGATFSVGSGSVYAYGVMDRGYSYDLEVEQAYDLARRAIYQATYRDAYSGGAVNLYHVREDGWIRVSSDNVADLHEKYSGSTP
In the case of `CC(C)C[C@H](NC(=O)C1(C(F)(F)c2ccccc2)CC(CNC(=O)c2cccn3ccnc23)=NO1)B(O)O` (stereo partly drawn) [Example 156, ((1R)-1-(5-(difluoro(phenyl)methyl)-3-((imidazo[1,2-a]pyridin-8-carboxamido)methyl)-4,5-dihydroisoxazol-5-carboxamido)-3-methylbutyl)boronic acid], the IC50 is less than 25 nM.

Consider `CC(C)C[C@H](NC(=O)C1(Cn2cccn2)CC(CNC(=O)c2nccc3ccccc23)=NO1)B(O)O` (stereo partly drawn) [Example 128, ((1R)-1-(5-((1H-pyrazol-1-yl)methyl)-3-((isoquinolin-1-carboxamido)methyl)-4,5-dihydroisoxazol-5-carboxamido)-3-methylbutyl)boronic acid], for which the IC50 was less than 10 nM.

For `CC(C)C[C@H](NC(=O)C1CC(c2cncc(-c3ccccc3)c2)=NO1)B(O)O` (stereo partly drawn) [Example 33, ((1R)-3-methyl-1-(3-(5-phenylpyridin-3-yl)-4,5-dihydroisoxazol-5-carboxamido)butyl)boronic acid], the IC50 was less than 100 nM.

As for `CC(C)C[C@H](NC(=O)C1(Cc2ccccc2)CC(CNC(=O)c2ccnc(Cl)c2)=NO1)B(O)O` (some centres unmarked) [Example 311], the IC50 was less than 10 nM.

As to `CC(C)C[C@H](NC(=O)[C@]1(Cc2ccccc2)CC(c2cccc(C(C)(C)C)c2)=NO1)B(O)O` [Example 24, ((R)-1-((S)-5-benzyl-3-(3-(tert-butyl)phenyl)-4,5-dihydroisoxazol-5-carboxamido)-3-methylbutyl)boronic acid], the IC50 is less than 500 nM.

Consider `CC(C)C[C@H](NC(=O)C1(Cc2ccccc2)CC(COCc2cccc(Br)n2)=NO1)B(O)O` (stereo partly drawn) [Example 53, ((1R)-1-(5-benzyl-3-(((6-bromopyridin-2-yl)methoxy)methyl)-4,5-dihydroisoxazol-5-carboxamido)-3-methylbutyl)boronic acid], for which the IC50 is less than 10 nM.

`CC(C)C[C@H](NC(=O)C1(Cc2ccccc2)CC(CNC(=O)c2c(Cl)cnn2C)=NO1)B(O)O` (stereo partly drawn) [Example 184, ((1R)-1-(5-benzyl-3-((4-chloro-1-methyl-1H-pyrazol-5-carboxamido)methyl)-4,5-dihydroisoxazol-5-carboxamido)-3-methylbutyl)boronic acid]: the IC50 is less than 10 nM.

For the molecule `CC(C)C[C@H](NC(=O)C1(Cc2cscn2)CC(CNC(=O)c2cccn3ccnc23)=NO1)B(O)O` (stereo partly drawn) [Example 150, ((1R)-1-(3-((imidazo[1,2-a]pyridin-8-carboxamido)methyl)-5-(thiazol-4-ylmethyl)-4,5-dihydroisoxazol-5-carboxamido)-3-methylbutyl)boronic acid], the IC50 was less than 10 nM.

For `Cc1cccc(CC2(C(=O)N[C@@H](CC(C)C)B(O)O)CC(CNC(=O)c3cc(-c4ccccn4)nn3C(C)C)=NO2)c1` (stereo partly drawn) [Example 245, ((1R)-1-(3-((1-isopropyl-3-(pyridin-2-yl)-1H-pyrazol-5-carboxamido)methyl)-5-(3-methylbenzyl)-4,5-dihydroisoxazol-5-carboxamido)-3-methylbutyl)boronic acid], the IC50 is less than 10 nM.

For `CC(C)C[C@H](NC(=O)C1(Cc2ccccc2)CC(CNC(=O)c2cc(F)cnc2Cl)=NO1)B(O)O` (stereo partly drawn) [Example 164, ((1R)-1-(5-benzyl-3-((2-chloro-5-fluoronicotinamido)methyl)-4,5-dihydroisoxazol-5-carboxamido)-3-methylbutyl)boronic acid], the IC50 was less than 10 nM.

As for `CC(C)C[C@H](NC(=O)C1CC(c2cnccn2)=NO1)B(O)O` (stereo partly drawn) [Example 2, ((1R)-3-methyl-1-(3-(pyrazin-2-yl)-4,5-dihydroisoxazol-5-carboxamido)butyl)boronic acid], the IC50 is less than 1000 nM.

As for `Cc1cc(C(=O)NCC2=NOC(Cc3ccccc3)(C(=O)N[C@@H](CC(C)C)B(O)O)C2)n(-c2ccccn2)n1` (stereo partly drawn) [Example 213, ((1R)-1-(5-benzyl-3-((3-methyl-1-(pyridin-2-yl)-1H-pyrazol-5-carboxamido)methyl)-4,5-dihydroisoxazol-5-carboxamido)-3-methylbutyl)boronic acid], the IC50 was less than 10 nM.

For `CC(C)C[C@H](NC(=O)C1(C2(c3ccccc3)CC2)CC(CNC(=O)c2cccn3ccnc23)=NO1)B(O)O` (stereo partly drawn) [Example 181, ((1R)-1-(3-((imidazo[1,2-a]pyridin-8-carboxamido)methyl)-5-(1-phenylcyclopropyl)-4,5-dihydroisoxazol-5-carboxamido)-3-methylbutyl)boronic acid], the IC50 is less than 50 nM.

In the case of `CC(C)C[C@H](NC(=O)C1(Cc2ccccc2)CC(COCc2cccc(Cl)c2)=NO1)B(O)O` (some centres unmarked) [Example 260], the IC50 is less than 50 nM.

On to `CC(C)C[C@H](NC(=O)C1(Cc2ccccc2)CC(CNC(=O)c2cccc(C#N)n2)=NO1)B(O)O` (some centres unmarked) [Example 323], for which the IC50 was less than 10 nM.

As for `O=C(N[C@@H](Cc1ccccc1)B(O)O)C1(Cc2ccccc2)CC(COc2ccccc2)=NO1` (stereo partly drawn) [Example 255, ((1R)-1-(5-benzyl-3-(phenoxymethyl)-4,5-dihydroisoxazol-5-carboxamido)-2-phenylethyl)boronic acid], the IC50 was less than 25 nM.

On to `O=C(N[C@@H](Cc1ccccc1)B(O)O)C1(Cc2ccccc2)CC(COCc2cccn3ccnc23)=NO1` (stereo partly drawn) [Example 267, ((1R)-1-(5-benzyl-3-((imidazo[1,2-a]pyridin-8-ylmethoxy)methyl)-4,5-dihydroisoxazol-5-carboxamido)-2-phenylethyl)boronic acid], for which the IC50 is less than 10 nM.

For the molecule `Cc1cccc(CC2(C(=O)N[C@@H](CC(C)C)B(O)O)CC(CNC(=O)c3cc(-c4ccccc4)nn3C(C)C)=NO2)c1` (stereo partly drawn) [Example 236, ((1R)-1-(3-((1-isopropyl-3-phenyl-1H-pyrazol-5-carboxamido)methyl)-5-(3-methylbenzyl)-4,5-dihydroisoxazol-5-carboxamido)-3-methylbutyl)boronic acid], the IC50 was less than 10 nM.

With `CCOCC1(C(=O)N[C@@H](CC(C)C)B(O)O)CC(CNC(=O)c2nccc3ccccc23)=NO1` (stereo partly drawn) [Example 193, ((1R)-1-(5-(ethoxymethyl)-3-((isoquinolin-1-carboxamido)methyl)-4,5-dihydroisoxazol-5-carboxamido)-3-methylbutyl)boronic acid], the IC50 was less than 10 nM.

Consider `CC(C)C[C@H](NC(=O)C1(C(F)c2ccccc2)CC(CNC(=O)c2nccc3ccccc23)=NO1)B(O)O` (stereo partly drawn) [Example 114, ((1R)-1-(5-(fluoro(phenyl)methyl)-3-((isoquinolin-1-carboxamido)methyl)-4,5-dihydroisoxazol-5-carboxamido)-3-methylbutyl)boronic acid], for which the IC50 was less than 10 nM.

Turning to `CC(C)C[C@H](NC(=O)C1(Cc2ccccc2)CC(CNC(=O)c2ccnn2C)=NO1)B(O)O` (stereo partly drawn) [Example 176, ((1R)-1-(5-benzyl-3-((1-methyl-1H-pyrazol-5-carboxamido)methyl)-4,5-dihydroisoxazol-5-carboxamido)-3-methylbutyl)boronic acid], the IC50 is less than 25 nM.

Take `CC(C)C[C@H](NC(=O)[C@]1(C(C)C)CC(c2nccc3ccccc23)=NO1)B(O)O` [Example 13, ((R)-1-((R)-5-isopropyl-3-(isoquinolin-1-yl)-4,5-dihydroisoxazol-5-carboxamido)-3-methylbutyl)boronic acid]: the IC50 is greater than 1000 nM.

On to `CC(C)C[C@H](NC(=O)C1CC(Cc2ccc3ccccc3c2)=NO1)B(O)O` (stereo partly drawn) [Example 18, ((1R)-3-methyl-1-(3-(naphthalen-2-ylmethyl)-4,5-dihydroisoxazol-5-carboxamido)butyl)boronic acid], for which the IC50 was less than 500 nM.

With `CC(C)C[C@H](NC(=O)C1(Cc2ccccc2)CC(CCNC(=O)c2nccc3ccccc23)=NO1)B(O)O` (some centres unmarked) [Example 253], the IC50 is less than 10 nM.

`CC(C)C[C@H](NC(=O)C1(Cc2ccccc2C(F)(F)F)CC(CNC(=O)c2nccc3ccccc23)=NO1)B(O)O` (stereo partly drawn) [Example 167, ((1R)-1-(3-((isoquinolin-1-carboxamido)methyl)-5-(2-(trifluoromethyl)benzyl)-4,5-dihydroisoxazol-5-carboxamido)-3-methylbutyl)boronic acid]: the IC50 was less than 10 nM.

As to `COc1ccc(-c2cccc(COCC3=NOC(Cc4ccccc4)(C(=O)N[C@@H](CC(C)C)B(O)O)C3)c2)cc1` (stereo partly drawn) [Example 56, ((1R)-1-(5-benzyl-3-(((4′-methoxy-[1,1′-biphenyl]-3-yl)methoxy)methyl)-4,5-dihydroisoxazol-5-carboxamido)-3-methylbutyl)boronic acid], the IC50 was less than 10 nM.

`CC(C)[C@H](NC(=O)C1(Cc2ccccc2)CC(CNC(=O)c2cc(Cl)ccc2Cl)=NO1)B(O)O` (stereo partly drawn) [Example 315, ((1R)-1-(5-benzyl-3-((2,5-dichlorobenzamido)methyl)-4,5-dihydroisoxazol-5-carboxamido)-2-methylpropyl)boronic acid]: the IC50 was less than 10 nM.

In the case of `COc1cccc(C(=O)NCC2=NOC(Cc3ccccc3)(C(=O)N[C@@H](CC(C)C)B(O)O)C2)n1` (some centres unmarked) [Example 322], the IC50 was less than 10 nM.

Take `CC(C)C[C@H](NC(=O)C1(Cc2ccccc2)CC(c2cccc(-c3nccc4ccccc34)c2)=NO1)B(O)O` (stereo partly drawn) [Example 36, ((1R)-1-(5-benzyl-3-(3-(isoquinolin-1-yl)phenyl)-4,5-dihydroisoxazol-5-carboxamido)-3-methylbutyl)boronic acid]: the IC50 is less than 250 nM.

As to `CC(C)C[C@H](NC(=O)C1CC(c2ccnc3ccccc23)=NO1)B(O)O` (stereo partly drawn) [Example 23, ((1R)-3-methyl-1-(3-(quinolin-4-yl)-4,5-dihydroisoxazol-5-carboxamido)butyl)boronic acid], the IC50 was less than 250 nM.

For the molecule `CC(C)C[C@H](NC(=O)C1CC(c2cnc3ccccc3c2)=NO1)B(O)O` (stereo partly drawn) [Example 29, ((1R)-3-methyl-1-(3-(quinolin-3-yl)-4,5-dihydroisoxazol-5-carboxamido)butyl)boronic acid], the IC50 was less than 500 nM.

As for `COc1cccc(COCC2=NOC(Cc3ccccc3)(C(=O)N[C@@H](CC(C)C)B(O)O)C2)c1` (some centres unmarked) [Example 272], the IC50 was less than 10 nM.
